Bridge positions count the residues as written; N and C are the ends. Peptide text beside a SMILES is read from it.
Experiments:
RyR1 [1] = settings: cited from earlier work
Source text: Imperatoxin A (IpTxa) from the African scorpion Pandinus imperator is a high-affinity modulator of skeletal RyR (RyR1). […] Stretches of these positively charged residues tend to adopt different secondary structures such as α-helical structure for Peptide A and β-sheet structure for IpTxa and MCa. However, their orientation on the surface of the peptides could be similar. […] Two toxins induced different degree of substate of RyR1 at +40 mV holding potential (28% and 48% of full conductance state for IpTxa and MCa, resp.). […] Thus, the di ...

RyR1 [2] = settings: ref [16], [18]; cited from earlier work
Source text: Imperatoxin A (IpTxa) from the African scorpion Pandinus imperator is a high-affinity modulator of skeletal RyR (RyR1). […] The inconsistency between occurrence of substate and ryanodine binding to RyR1 affected by K8A or T ...

[3] = target: rabbit skeletal ryanodine receptor (RyR1) (rabbit) (UniProt P11716)
purified rabbit RyR1 = target: T1, purified rabbit RyR1 (Oryctolagus cuniculus, UniProt P11716); assay: Planar lipid bilayer single-channel recording, purified RyR1; assay type: biochemical; settings: for EC50 for Psubstate compared with wild type (in words): purified RyR1, 6-100 nM; for EC50: purified RyR1, toxin cis, 6-100 nM, -30 mV, 10 μM Ca^2+, Hill fit, means ± SE of 4–10 experiments, read-out: EC50 for Psubstate
T1 construct: we added IpTxa to purified RyR1 incorporated into planar lipid bilayers; from tissue; host or cells: rabbit skeletal muscle (inferred; purified from HSR)
T1 sequence (P11716 whole entry): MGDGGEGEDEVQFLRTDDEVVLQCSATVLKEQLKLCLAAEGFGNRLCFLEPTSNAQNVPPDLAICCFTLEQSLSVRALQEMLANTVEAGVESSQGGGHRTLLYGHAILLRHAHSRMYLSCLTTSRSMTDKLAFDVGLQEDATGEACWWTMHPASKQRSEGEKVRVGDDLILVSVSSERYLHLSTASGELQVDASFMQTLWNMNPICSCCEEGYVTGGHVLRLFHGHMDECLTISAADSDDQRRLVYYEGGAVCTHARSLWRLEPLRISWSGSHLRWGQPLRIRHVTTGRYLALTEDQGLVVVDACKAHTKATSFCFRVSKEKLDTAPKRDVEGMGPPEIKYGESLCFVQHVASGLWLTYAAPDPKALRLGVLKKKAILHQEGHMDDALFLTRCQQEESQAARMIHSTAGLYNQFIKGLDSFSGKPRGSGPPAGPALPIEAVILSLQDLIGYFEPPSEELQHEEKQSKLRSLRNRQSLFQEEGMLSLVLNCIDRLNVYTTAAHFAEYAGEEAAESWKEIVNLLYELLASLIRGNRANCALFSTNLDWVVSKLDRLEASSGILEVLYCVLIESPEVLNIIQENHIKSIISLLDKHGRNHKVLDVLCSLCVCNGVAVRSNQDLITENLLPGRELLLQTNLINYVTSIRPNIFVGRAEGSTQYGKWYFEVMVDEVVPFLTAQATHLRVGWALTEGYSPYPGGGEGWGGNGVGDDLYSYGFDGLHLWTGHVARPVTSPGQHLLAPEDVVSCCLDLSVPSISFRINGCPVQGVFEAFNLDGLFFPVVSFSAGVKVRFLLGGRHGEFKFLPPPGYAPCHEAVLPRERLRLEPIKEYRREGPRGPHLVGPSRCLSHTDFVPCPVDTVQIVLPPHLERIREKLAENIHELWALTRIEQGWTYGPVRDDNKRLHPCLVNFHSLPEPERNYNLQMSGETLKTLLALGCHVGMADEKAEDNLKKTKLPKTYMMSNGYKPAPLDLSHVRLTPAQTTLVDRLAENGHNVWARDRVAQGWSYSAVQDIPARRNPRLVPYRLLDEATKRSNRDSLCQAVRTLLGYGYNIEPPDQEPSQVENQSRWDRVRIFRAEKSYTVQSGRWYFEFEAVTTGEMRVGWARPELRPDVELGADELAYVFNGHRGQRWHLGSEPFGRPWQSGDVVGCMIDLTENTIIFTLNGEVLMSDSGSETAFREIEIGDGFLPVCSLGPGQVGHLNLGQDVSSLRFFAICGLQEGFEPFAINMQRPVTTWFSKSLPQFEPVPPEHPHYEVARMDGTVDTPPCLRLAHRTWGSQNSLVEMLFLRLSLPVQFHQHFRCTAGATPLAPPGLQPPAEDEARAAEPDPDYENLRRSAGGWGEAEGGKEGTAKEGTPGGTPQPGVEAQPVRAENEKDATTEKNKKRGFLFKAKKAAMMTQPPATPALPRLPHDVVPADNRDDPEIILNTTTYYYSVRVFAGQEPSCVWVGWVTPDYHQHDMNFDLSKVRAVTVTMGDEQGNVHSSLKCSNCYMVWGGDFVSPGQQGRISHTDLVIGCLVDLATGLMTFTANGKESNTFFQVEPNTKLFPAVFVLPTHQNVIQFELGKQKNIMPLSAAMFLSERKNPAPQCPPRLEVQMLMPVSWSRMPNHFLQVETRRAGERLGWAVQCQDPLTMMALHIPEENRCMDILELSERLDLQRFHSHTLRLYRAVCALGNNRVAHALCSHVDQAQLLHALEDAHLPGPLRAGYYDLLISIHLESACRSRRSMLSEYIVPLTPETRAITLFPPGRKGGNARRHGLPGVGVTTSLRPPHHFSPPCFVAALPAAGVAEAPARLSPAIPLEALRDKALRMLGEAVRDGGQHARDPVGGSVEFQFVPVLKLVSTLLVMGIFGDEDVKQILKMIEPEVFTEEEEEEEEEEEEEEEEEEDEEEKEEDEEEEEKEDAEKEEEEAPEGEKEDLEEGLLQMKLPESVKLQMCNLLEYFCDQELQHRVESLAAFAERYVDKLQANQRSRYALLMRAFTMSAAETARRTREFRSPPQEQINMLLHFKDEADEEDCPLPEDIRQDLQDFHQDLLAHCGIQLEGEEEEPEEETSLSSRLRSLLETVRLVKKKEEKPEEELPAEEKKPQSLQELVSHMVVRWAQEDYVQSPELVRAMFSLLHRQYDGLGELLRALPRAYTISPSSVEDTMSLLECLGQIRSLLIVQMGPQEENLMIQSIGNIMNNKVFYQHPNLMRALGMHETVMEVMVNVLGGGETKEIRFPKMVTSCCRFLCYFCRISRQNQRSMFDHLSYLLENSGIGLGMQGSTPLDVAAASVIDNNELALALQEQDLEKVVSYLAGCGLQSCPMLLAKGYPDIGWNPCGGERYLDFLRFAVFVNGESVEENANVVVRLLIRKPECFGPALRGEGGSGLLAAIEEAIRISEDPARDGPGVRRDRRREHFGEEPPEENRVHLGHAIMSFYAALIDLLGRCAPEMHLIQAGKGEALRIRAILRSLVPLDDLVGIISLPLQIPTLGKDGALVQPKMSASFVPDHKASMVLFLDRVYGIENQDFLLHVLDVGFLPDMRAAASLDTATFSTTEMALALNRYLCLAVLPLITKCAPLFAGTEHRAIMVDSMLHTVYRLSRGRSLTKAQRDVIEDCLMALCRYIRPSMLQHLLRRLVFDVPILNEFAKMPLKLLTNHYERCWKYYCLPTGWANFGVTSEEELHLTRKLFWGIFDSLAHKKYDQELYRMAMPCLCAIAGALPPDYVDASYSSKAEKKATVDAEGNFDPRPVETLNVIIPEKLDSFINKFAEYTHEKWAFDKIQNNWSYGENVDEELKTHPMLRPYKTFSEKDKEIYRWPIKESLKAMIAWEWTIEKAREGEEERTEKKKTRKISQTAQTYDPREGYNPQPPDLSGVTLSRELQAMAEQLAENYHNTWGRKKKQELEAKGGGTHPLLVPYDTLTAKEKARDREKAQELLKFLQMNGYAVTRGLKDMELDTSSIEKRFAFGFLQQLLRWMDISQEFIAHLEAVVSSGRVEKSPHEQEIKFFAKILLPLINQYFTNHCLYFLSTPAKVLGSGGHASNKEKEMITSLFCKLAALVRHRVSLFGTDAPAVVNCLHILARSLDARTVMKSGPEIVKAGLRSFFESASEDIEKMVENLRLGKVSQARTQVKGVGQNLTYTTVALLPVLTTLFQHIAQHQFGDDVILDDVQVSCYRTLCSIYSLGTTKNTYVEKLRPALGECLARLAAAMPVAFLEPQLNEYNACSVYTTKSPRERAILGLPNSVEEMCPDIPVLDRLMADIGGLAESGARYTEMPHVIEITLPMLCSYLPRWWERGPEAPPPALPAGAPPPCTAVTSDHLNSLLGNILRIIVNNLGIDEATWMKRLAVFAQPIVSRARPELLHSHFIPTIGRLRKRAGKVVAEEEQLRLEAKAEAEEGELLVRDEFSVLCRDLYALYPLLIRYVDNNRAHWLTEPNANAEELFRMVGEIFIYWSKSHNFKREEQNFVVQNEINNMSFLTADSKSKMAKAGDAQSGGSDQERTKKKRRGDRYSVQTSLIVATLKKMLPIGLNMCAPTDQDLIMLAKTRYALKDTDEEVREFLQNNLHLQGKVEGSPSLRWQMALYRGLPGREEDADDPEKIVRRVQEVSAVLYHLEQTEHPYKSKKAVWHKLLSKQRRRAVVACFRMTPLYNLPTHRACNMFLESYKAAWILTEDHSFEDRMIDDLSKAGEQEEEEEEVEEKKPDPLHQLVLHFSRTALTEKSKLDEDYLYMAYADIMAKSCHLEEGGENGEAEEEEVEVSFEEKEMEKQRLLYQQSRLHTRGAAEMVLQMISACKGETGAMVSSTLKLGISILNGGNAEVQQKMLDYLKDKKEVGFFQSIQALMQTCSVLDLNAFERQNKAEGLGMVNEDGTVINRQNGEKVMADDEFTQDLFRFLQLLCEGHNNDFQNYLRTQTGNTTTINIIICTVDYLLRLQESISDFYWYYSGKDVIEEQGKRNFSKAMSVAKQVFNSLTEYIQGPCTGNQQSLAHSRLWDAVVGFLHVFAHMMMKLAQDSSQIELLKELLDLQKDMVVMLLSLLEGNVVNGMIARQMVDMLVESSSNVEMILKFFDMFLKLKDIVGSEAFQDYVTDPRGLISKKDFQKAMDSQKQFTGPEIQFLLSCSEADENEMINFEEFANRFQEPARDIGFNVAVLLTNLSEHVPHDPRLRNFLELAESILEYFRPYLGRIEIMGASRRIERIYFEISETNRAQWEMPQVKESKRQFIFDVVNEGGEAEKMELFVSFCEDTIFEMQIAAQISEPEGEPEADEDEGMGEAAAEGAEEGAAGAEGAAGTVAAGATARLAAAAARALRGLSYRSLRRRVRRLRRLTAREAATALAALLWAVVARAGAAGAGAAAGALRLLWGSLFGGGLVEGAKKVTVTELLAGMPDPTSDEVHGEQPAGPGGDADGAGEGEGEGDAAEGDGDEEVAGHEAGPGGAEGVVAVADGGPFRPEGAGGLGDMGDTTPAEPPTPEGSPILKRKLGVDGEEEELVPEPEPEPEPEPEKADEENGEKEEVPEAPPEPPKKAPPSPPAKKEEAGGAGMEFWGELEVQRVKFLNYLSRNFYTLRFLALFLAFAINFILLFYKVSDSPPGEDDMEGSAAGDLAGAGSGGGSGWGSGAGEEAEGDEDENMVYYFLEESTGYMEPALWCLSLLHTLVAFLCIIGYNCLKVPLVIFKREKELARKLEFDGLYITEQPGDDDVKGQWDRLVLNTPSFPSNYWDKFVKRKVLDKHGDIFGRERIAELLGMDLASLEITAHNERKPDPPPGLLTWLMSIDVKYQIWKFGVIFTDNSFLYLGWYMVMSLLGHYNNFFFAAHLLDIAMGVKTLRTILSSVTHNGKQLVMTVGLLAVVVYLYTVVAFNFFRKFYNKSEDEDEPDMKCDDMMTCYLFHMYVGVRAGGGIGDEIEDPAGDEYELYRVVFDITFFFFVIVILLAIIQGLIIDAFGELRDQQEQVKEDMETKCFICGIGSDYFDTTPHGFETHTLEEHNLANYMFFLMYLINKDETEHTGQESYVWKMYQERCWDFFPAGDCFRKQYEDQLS
Experimental: (§1) Single-channel recordings of rabbit skeletal RyR1 incorporated into planar lipid bilayers were carried out as described previously. Lipid bilayers, consisting of brain tissue phosphatidylethanolamine and phosphatidylserine (1 : 1) in decane (20 mg/mL) were formed across a hole of approximately 200 μm diameter. Thinning of the bilayer was monitored by bilayer capacitance. The basic composition of the cis/trans solution consisted of 300 mM cesium methanesulfonate, 10 mM Tris/Hepes (pH 7.2), 2 mM EGTA, and 1.998 mM CaCl2 ([Ca^2+]free = 10 μM). [Ca^2+]free was calculated using the “Chelator” program (Theo Schoenmaker). Cs^+ was selected as the charge carrier to ensure precise control of free [Ca^2+], to increase the channel conductance, and to avoid any contribution from potassium channels present in the SR membrane. Chloride channels were inhibited by using the impermeant anion methanesulfonate. Incorporation of ion channels was carried out as described by Miller and Racker and confirmed by recording the characteristically high single-channel conductance of RyRs. The trans side was maintained at ground and the cis side was clamped at −30 mV relative to the ground. After addition of the IpTxa to the cis chamber, the single channel data were collected at −30 mV for 2–5 min. […] Recordings were filtered with an 8-pole low-pass Bessel filter at 1 kHz and digitalized through a Digidata 1200 series interface (Axon Instruments). Data acquisition and analysis were done with the Axon Instruments software, pClamp v7.0.
(§2) Data were analyzed using the Hill equation described previously:
(§3) (1) Psubstate=(Psubstate, max )/[1+(EC50/[IpTxa])^nH] orPo=(Po, max )/[1+(EC50/[IpTxa])^nH], where (Po, max ) is the Po observed at saturating concentrations of IpTxa, EC50 is the IpTxa concentration for which 50% of Po, max is obtained and nH is the Hill coefficient. Also, Psubstate, max is the Psubstate observed at saturating concentrations of IpTxa, EC50 is the IpTxa concentration for which 50% of Psubstate, max is obtained, and nH is the Hill coefficient. The probability of full open state of the channel (Po) was defined as the ratio of the time spent in the open state to the total time exclusive of time spent in the substate. The probability to obtain substate (Psubstate) was calculated as the time spent in the substate divided by a given total recording time. The durations of the substate were obtained by manual positioning of the cursors and constructing all point histograms. Mean duration of substate was measured by total substate time divided by total substate frequencies.
(§4) Results are given as means ± SE. Significant differences were analyzed using Student's t-test. Differences were considered to be significant when P < 0.05. The fitting of the data to the graphs were carried out using the software, Origin v7.
To determine whether the activation of native RyR1 in SR by IpTxa was due to a direct activation of RyR1 or due to an indirect activation through other proteins associated to RyR1, we added IpTxa to purified RyR1 incorporated into planar lipid bilayers (Figure 3(a)). […] Purity of RyR1 at the final purification step was verified by Coomassie blue staining (Supplementary Figure 2).
Figure 3 Effects of IpTxa on purified rabbit RyR1 incorporated in planar lipid bilayers. (a) Single channel activity of purified RyR1 incorporated in planar lipid bilayers at 10 μM Ca^2+ with or without IpTxa (6–100 nM) was recorded. Single channel currents are shown as downward deflections from the closed level (indicated by c). The holding potential was −30 mV. (b) The plot of Po of purified RyR1 versus various concentrations of IpTxa is shown. (c) The plot of Psubstate of purified RyR1 versus various concentrations of IpTxa is shown. The results are shown as the means ± SE for 7 experiments. […]

[4] = target: T2, rabbit skeletal RyR1 (native RyR1 in HSR) (Oryctolagus cuniculus, UniProt P11716); assay: Planar lipid bilayer single-channel recording, native RyR1 in HSR; assay type: biochemical; settings: for EC50: native RyR1 in SR, toxin cis, 6-100 nM, -30 mV, [Ca^2+]free 10 μM, pH 7.2, Hill fit, means ± SE of 3–9 experiments, read-out: EC50 for Psubstate
T2 construct: tested using native RyR1 in rabbit skeletal HSR; from tissue; host or cells: rabbit fast-twitch back and leg muscles (heavy SR vesicles)
T2 sequence (P11716 whole entry): as above
Experimental: A heavy fraction of fragmented SR vesicles (HSR) containing junctional SR was prepared from rabbit fast-twitch back and leg muscles as described previously.
as §1, §2, §3, §4
To examine how IpTxa modifies RyR1 activity, RyR1 in HSR incorporated in planar lipid bilayers was tested in the presence or absence of synthetic wild-type IpTxa. The chamber solutions for both cis (cytosolic) and trans (luminal) sides included 300 mM cesium methanesulfonate and 10 mM Tris-Hepes (pH 7.2). 10 μM free Ca^2+ was added to the cis side to activate the incorporated RyR1. After an addition of IpTxa to the cis chamber, the single channel gating properties were recorded at a holding potential of −30 mV for over 2 min at each toxin concentration. […] To examine the effects of IpTxa on full open state, we calculated the probability to obtain the full open state (Po) as the time spent in the open state divided by the total time exclusive of the time spent in the substate. The time for recorded Po was in the range of 30 s–2 min. […] The steady-state Po was 0.18 ± 0.02 at 10 μM Ca^2+. […]

Row | Compound | mean duration of substate of native RyR1 in HSR at 30 nM toxin [3] [s] | EC50 for Psubstate compared with wild type (in words) (purified rabbit RyR1) | EC50 (purified rabbit RyR1) [nM] | EC50 [4] [nM] | also measured
1 | maurocalcine [MCa] |  |  |  |  | substate current amplitude, % of full conductance state (RyR1 [1]; +40 mV holding potential, ref [10], [13]): 48%; substate current amplitude, % of full conductance (RyR1 [1]; long-lasting substate of RyR1, ref [16], [18]): 48%; modification of channel gating by MCa and peptide A together (in words) (RyR1 [1]; ref [16]): in an additive, but not competitive, manner; [^3H]ryanodine binding (in words) (RyR1 [2]): strongly enhances [^3H]ryanodine binding to RyR1
2 | IpTxa R9A (from UniProt P59868 1-33) (peptide) | 5.86 |  |  |  | 
3 | CC(C)C[C@@H]1NC(=O)[C@H](Cc2c[nH]cn2)NC(=O)[C@@H]2CCCN2C(=O)[C@H](CC(C)C)NC(=O)[C@@H](NC(=O)[C@H](CC(=O)O)NC(=O)CN)CSSC[C@@H]2NC(=O)[C@@H]3CSSC[C@@H](C(=O)N[C@@H](CCCNC(=N)N)C(=O)O)NC(=O)[C@H](C)NC(=O)[C@H](CCCCN)NC(=O)[C@H](CCC(=O)O)NC(=O)[C@H](C)NC(=O)[C@H](CC(N)=O)NC(=O)[C@H]([C@@H](C)O)NC(=O)CNC(=O)[C@H](CCCNC(=N)N)NC(=O)[C@H](CCCNC(=N)N)NC(=O)[C@H](CCCCN)NC(=O)[C@H](CSSC[C@H](NC(=O)[C@H](CCCNC(=N)N)NC(=O)[C@H](CCCCN)NC1=O)C(=O)N[C@@H](CCCCN)C(=O)N[C@@H](C)C(=O)N[C@@H](CC(=O)O)C(=O)N[C@@H](CC(N)=O)C(=O)N[C@@H](CC(=O)O)C(=O)N3)NC(=O)[C@H](CCCCN)NC(=O)[C@H](CCCCN)NC(=O)CNC2=O [R31A] (H-GDCLPHLKRCKADNDCCGKKCKRRGTNAEKACR-OH; disulfide 3-17, 10-21, 16-32) |  | without a significant change of EC50 | 18.2 ± 1.65 | 19.2 ± 4.65 | 
4 | Imperatoxin A (IpTxa), synthetic wild type (from UniProt P59868 1-33) (peptide) | 4.56 |  |  |  | 
5 | CC(C)C[C@@H]1NC(=O)[C@H](Cc2c[nH]cn2)NC(=O)[C@@H]2CCCN2C(=O)[C@H](CC(C)C)NC(=O)[C@@H](NC(=O)[C@H](CC(=O)O)NC(=O)CN)CSSC[C@@H]2NC(=O)[C@@H]3CSSC[C@@H](C(=O)N[C@@H](CCCNC(=N)N)C(=O)O)NC(=O)[C@H](CCCNC(=N)N)NC(=O)[C@H](CCCCN)NC(=O)[C@H](CCC(=O)O)NC(=O)[C@H](C)NC(=O)[C@H](CC(N)=O)NC(=O)[C@H]([C@@H](C)O)NC(=O)CNC(=O)[C@H](CCCNC(=N)N)NC(=O)[C@H](CCCNC(=N)N)NC(=O)[C@H](CCCCN)NC(=O)[C@H](CSSC[C@H](NC(=O)[C@H](CCCNC(=N)N)NC(=O)[C@H](C)NC1=O)C(=O)N[C@@H](CCCCN)C(=O)N[C@@H](C)C(=O)N[C@@H](CC(=O)O)C(=O)N[C@@H](CC(N)=O)C(=O)N[C@@H](CC(=O)O)C(=O)N3)NC(=O)[C@H](CCCCN)NC(=O)[C@H](CCCCN)NC(=O)CNC2=O [K8A] (H-GDCLPHLARCKADNDCCGKKCKRRGTNAEKRCR-OH; disulfide 3-17, 10-21, 16-32) |  |  | 5.29 ± 4.84 | 5.7 ± 2.86 | EC50 of Psubstate compared with wild type (in words) ([4]; native RyR1 (Figure 2(b)), Figure 5(b), purified RyR1, also cited in sentence): dramatically decreased EC50 of Psubstate
6 | CC(C)C[C@@H]1NC(=O)[C@H](Cc2c[nH]cn2)NC(=O)[C@@H]2CCCN2C(=O)[C@H](CC(C)C)NC(=O)[C@@H](NC(=O)[C@H](CC(=O)O)NC(=O)CN)CSSC[C@@H]2NC(=O)[C@@H]3CSSC[C@@H](C(=O)N[C@@H](C)C(=O)O)NC(=O)[C@H](CCCNC(=N)N)NC(=O)[C@H](CCCCN)NC(=O)[C@H](CCC(=O)O)NC(=O)[C@H](C)NC(=O)[C@H](CC(N)=O)NC(=O)[C@H]([C@@H](C)O)NC(=O)CNC(=O)[C@H](CCCNC(=N)N)NC(=O)[C@H](CCCNC(=N)N)NC(=O)[C@H](CCCCN)NC(=O)[C@H](CSSC[C@H](NC(=O)[C@H](CCCNC(=N)N)NC(=O)[C@H](CCCCN)NC1=O)C(=O)N[C@@H](CCCCN)C(=O)N[C@@H](C)C(=O)N[C@@H](CC(=O)O)C(=O)N[C@@H](CC(N)=O)C(=O)N[C@@H](CC(=O)O)C(=O)N3)NC(=O)[C@H](CCCCN)NC(=O)[C@H](CCCCN)NC(=O)CNC2=O [R33A] (H-GDCLPHLKRCKADNDCCGKKCKRRGTNAEKRCA-OH; disulfide 3-17, 10-21, 16-32) |  | without a significant change of EC50 | 19.3 ± 1.05 | 16 ± 5.65 | 
7 | IpTxa D2A (from UniProt P59868 1-33) (peptide) | 2.96 |  |  |  | 
8 | CC(C)C[C@@H]1NC(=O)[C@H](Cc2c[nH]cn2)NC(=O)[C@@H]2CCCN2C(=O)[C@H](CC(C)C)NC(=O)[C@@H](NC(=O)[C@H](CC(=O)O)NC(=O)CN)CSSC[C@@H]2NC(=O)[C@@H]3CSSC[C@@H](C(=O)N[C@@H](CCCNC(=N)N)C(=O)O)NC(=O)[C@H](CCCNC(=N)N)NC(=O)[C@H](C)NC(=O)[C@H](CCC(=O)O)NC(=O)[C@H](C)NC(=O)[C@H](CC(N)=O)NC(=O)[C@H]([C@@H](C)O)NC(=O)CNC(=O)[C@H](CCCNC(=N)N)NC(=O)[C@H](CCCNC(=N)N)NC(=O)[C@H](CCCCN)NC(=O)[C@H](CSSC[C@H](NC(=O)[C@H](CCCNC(=N)N)NC(=O)[C@H](CCCCN)NC1=O)C(=O)N[C@@H](CCCCN)C(=O)N[C@@H](C)C(=O)N[C@@H](CC(=O)O)C(=O)N[C@@H](CC(N)=O)C(=O)N[C@@H](CC(=O)O)C(=O)N3)NC(=O)[C@H](CCCCN)NC(=O)[C@H](CCCCN)NC(=O)CNC2=O [K30A] (H-GDCLPHLKRCKADNDCCGKKCKRRGTNAEARCR-OH; disulfide 3-17, 10-21, 16-32) |  | without a significant change of EC50 | 15.7 ± 5.99 | 16.7 ± 2.86 | 

Source: PMC3192407, “Both Basic and Acidic Amino Acid Residues of IpTxa Are Involved in Triggering Substate of RyR1” (Journal of Biomedicine and Biotechnology, 2011)
